Where two headings read alike, the source gives them in different places.
Legend:
Full-length human PRMT8 = target: T1, Full-length human PRMT8 (Homo sapiens, UniProt Q9NR22); experiment: PRMT8 biochemical assay (3H-SAM Flashplate, peptide substrate)
T1 construct: Full-length human PRMT8 (NM_019854.4) isoform 1 transcript clone; made in house
Method in brief: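 Methylation of a biotinylated H4 (31-45) peptide by ³H-SAM was counted after streptavidin Flashplate capture. Purified recombinant PRMT8 and compound were preincubated 30 min at room temperature in Bicine buffer pH 7.6 with TCEP, BSG and Tween 20, and reactions were stopped with unlabeled SAM (final 400 μM). Inhibition versus DMSO and SAH controls was fit by 3- or 4-parameter curves.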

[1] = test system: mono-methyl arginine in RKO cells; experiment: RKO methylation assay, In Cell Western for mono-methyl arginine and DNA content; type: cell-based; settings: Homo sapiens
[2] = In Cell Western, RKO cells, 72 hours, percent activation of mono-methyl arginine signal, read-out: EC30

T1 sequence (Q9NR22 whole entry, canonical isoform): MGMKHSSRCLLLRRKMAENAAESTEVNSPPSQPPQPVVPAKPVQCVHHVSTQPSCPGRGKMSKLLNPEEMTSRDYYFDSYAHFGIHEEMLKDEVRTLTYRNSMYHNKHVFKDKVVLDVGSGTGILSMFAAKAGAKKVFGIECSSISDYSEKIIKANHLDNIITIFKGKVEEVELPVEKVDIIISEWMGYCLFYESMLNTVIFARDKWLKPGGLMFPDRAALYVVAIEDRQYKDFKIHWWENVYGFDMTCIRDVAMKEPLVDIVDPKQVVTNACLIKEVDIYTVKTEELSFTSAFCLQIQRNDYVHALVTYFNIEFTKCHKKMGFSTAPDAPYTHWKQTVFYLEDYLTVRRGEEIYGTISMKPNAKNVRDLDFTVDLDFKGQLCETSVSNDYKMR

Compound | IC50 (Full-length human PRMT8) [µM] | EC30 [1, 2] [µM] | EC30 ([1]; RKO, 72 h) [µM]
Cc1cc(-c2n[nH]cc2CN(C)CCN)cc(C)c1OC(C)C [Compound 199, N^1-((3-(4-isopropoxy-3,5-dimethylphenyl)-1H-pyrazol-4-yl)methyl)-N^1-methylethane-1,2-diamine] | 0.101 to 1 | < 3 | –
CN(CCN)Cc1c[nH]nc1-c1ccc(Oc2ccccc2)c(C#N)c1 [Compound 202] | 0.101 to 1 | < 3 | –
CN(CCN)Cc1n[nH]cc1-c1ccc(Oc2ccccc2)cc1 [Compound 203] | 0.101 to 1 | < 3 | –
CNCCN(C)Cc1n[nH]cc1-c1ccc(Oc2ccccc2)cc1 [Compound 204] | < 0.1 | < 3 | –
CN(CCN)Cc1c[nH]nc1-c1ccc(Oc2cccc(F)c2)cc1 [Compound 205] | 0.101 to 1 | < 3 | –
CNCCN(C)Cc1cn(C)nc1-c1ccc(OC(C)C)c(Cl)c1 [Compound 206] | 0.101 to 1 | – | < 3
CNCCN(C)Cc1cn(C)nc1-c1ccc(Oc2ccccc2)cc1 [Compound 207] | 0.101 to 1 | < 3 | –
CNCCN(C)Cc1cnn(C)c1-c1ccc(Oc2ccccc2)cc1 [Compound 208] | 0.101 to 1 | < 3 | –
CNCCN(C)Cc1c[nH]nc1-c1ccc(OCCCOC)cc1 [Compound 209] | 0.101 to 1 | < 3 | –
CNCCN(C)Cc1n[nH]cc1-c1ccc(OC(C)C)c(F)c1 [Compound 210] | 0.101 to 1 | < 3 | –
CC(C)Oc1ccc(-c2c[nH]nc2CN(C)CCN)cc1Cl [Compound 211] | 0.101 to 1 | < 3 | –
CNCCN(C)Cc1n[nH]cc1-c1ccc(OC(C)C)c(Cl)c1 [Compound 212] | < 0.1 | < 3 | –
CNCCN(C)Cc1c[nH]nc1-c1ccc(Oc2ccccc2)c(C#N)c1 [Compound 221] | 0.101 to 1 | < 3 | –
CN(CCN)Cc1c(-c2ccc(C#N)cc2)ncn1C [Compound 222] | 3.01 to 10 | > 12 | –
CN(CCN)Cc1c[nH]nc1-c1ccc(Oc2ccccc2)c(F)c1 [Compound 224, N^1-((3-(3-fluoro-4-phenoxyphenyl)-1H-pyrazol-4-yl)methyl)-N^1-methylethane-1,2-diamine] | 0.101 to 1 | – | < 3
CN(CCN)Cc1c[nH]nc1-c1ccc(Oc2ccc(F)cc2)cc1 [Compound 225, N^1-((3-(4-(4-fluorophenoxy)phenyl)-1H-pyrazol-4-yl)methyl)-N^1-methylethane-1,2-diamine] | < 0.1 | < 3 | –
CN(CCN)Cc1c[nH]nc1-c1ccc(Oc2ccccc2)c(C(=O)N(C)C)c1 [Compound 226] | 3.01 to 10 | > 12 | –
CNC(=O)c1cc(-c2n[nH]cc2CN(C)CCN)ccc1Oc1ccccc1 [Compound 227] | 0.101 to 1 | > 12 | –
CNCCN(C)Cc1c[nH]nc1-c1ccc(OCCCOC)c(Cl)c1 [Compound 228] | 0.101 to 1 | < 3 | –
CNCCN(C)Cc1cnn(CC(=O)OC)c1-c1ccc(OC(C)C)cc1 [Compound 249] | 1.01 to 3 | – | 3.01 to 12
CNCCN(C)Cc1cn(CC(=O)O)nc1-c1ccc(OC(C)C)cc1 [Compound 250] | 1.01 to 3 | – | > 12
CNCCN(C)Cc1cn(C2CCCCC2)nc1-c1ccc(OC(C)C)cc1 [Compound 256] | 1.01 to 3 | > 12 | –

— patent US9346761B2, “Arginine methyltransferase inhibitors and uses thereof” (Epizyme, Inc., priority 2013, dated 2016)
